Data: patent US20140011853A1, “SUBSTITUTED 3-(BIPHENYL-3-YL)-8,8-DIFLUORO-4-HYDROXY-1-AZASPIRO[4.5]DEC-3-EN-2-ONES FOR THERAPY” (BAYER INTELLECTUAL PROPERTY GMBH, priority 2011, published 2014)
Values joined by “and” are separate entries in the source; they are usually repeats but may differ in a detail not shown here. Identical values can stand only once.

Experiments:
[1] = test system: Myzus persicae; test: Myzus test (MYZUPE spray treatment); type: in vivo; conditions: 500 g/ha, after 6 days; for pest or weed control at 500 g/ha: Myzus persicae, 144 h, read-out: effect (kill of aphids)
Text: Disks of Chinese cabbage (Brassica pekinensis) infested by all stages of the green peach aphid (Myzus persicae) are sprayed with an active compound formulation of the desired concentration.

[2] = test system: Spodoptera frugiperda; test: Spodoptera frugiperda test (SPODFR spray treatment); type: in vivo; conditions: 500 g/ha, after 7 days
[3] = molecular target: T1, human ACC1 (Homo sapiens, UniProt Q13085); test: Human ACC1 enzyme assay (ADP-Glo); type: biochemical; conditions: individual measurements; read-out: ACC 1 IC50
T1 construct: FLAG (C); made in house; host or cells: baculovirus-infected insect cells (Hi5)

[4] = test system: human ACC1; test: Human ACC1 enzyme assay (ADP-Glo); type: biochemical; conditions: for Ratio of IC50s ACC2/ACC1 (respective measurement): pairwise, same dilution series
[5] = test system: KM12; test: Tumour cell proliferation, CellTiter-Glo, 96-hour incubation, KM12; type: cell-based; conditions: Homo sapiens, KM12, 96 h; read-out: KM12 IC50
Protocol: (§1) In accordance with the invention, the substances were tested in cell-based assays for the ability of the substances of inhibiting tumour cell proliferation after a 96-hour incubation with the substance. Cell viability was tested using the CellTiter-Glo® luminescent cell viability assay (Promega). The cells were sown at a density of 2000-5000 cells/well (depending on the cell line) in 100 μl growth medium on 96-well microtiter plates. For each cell line examined, cells were sown on a separate plate to determine the luminescence at t=0 hours and t=96 hours. After overnight incubation at 37° C., the luminescence values for the t=0 samples were determined. The dose plates for the t=96 hours points in time were treated with substances diluted with growth medium. The cells were then incubated at 37° C. for 96 hours, and the luminescence values for the t=96 hours samples were then determined. For data analysis, the t=0 values were subtracted from the t=96 hours values for treated and untreated samples. The differences in luminescence in percent between substance-treated samples and control values were used to determine the growth inhibition in percent.
(§2) The substances were tested in the following cell lines which represent the stated indications in an exemplary manner: […]

[6] = test system: PC3; test: Tumour cell proliferation, CellTiter-Glo, 96-hour incubation, PC3; type: cell-based; conditions: Homo sapiens, PC-3, 96 h; read-out: PC3 IC50
Protocol: as §1, §2

[7] = test system: H460; test: Tumour cell proliferation, CellTiter-Glo, 96-hour incubation, H460; type: cell-based; conditions: Homo sapiens, NCI-H460, 96 h; read-out: H460 IC50
Protocol: as §1, §2

[8] = test system: MCF7; test: Tumour cell proliferation, CellTiter-Glo, 96-hour incubation, MCF7; type: cell-based; conditions: Homo sapiens, MCF7, 96 h; read-out: MCF7 IC50
Protocol: as §1, §2

[9] = test system: Tetranychus urticae; test: Tetranychus test, OP-resistant (TETRUR spray treatment); type: in vivo; conditions: after 6 days; for pest or weed control at 100 g/ha: Tetranychus urticae, 144 h, read-out: effect (kill of spider mites)
[10] = molecular target: human ACC2 (Homo sapiens, UniProt O00763); test: Human ACC2 enzyme assay (ADP-Glo); conditions: ACC 2 IC50, individual measurements
Chain of human ACC2 (O00763 27-2458 limits assumed): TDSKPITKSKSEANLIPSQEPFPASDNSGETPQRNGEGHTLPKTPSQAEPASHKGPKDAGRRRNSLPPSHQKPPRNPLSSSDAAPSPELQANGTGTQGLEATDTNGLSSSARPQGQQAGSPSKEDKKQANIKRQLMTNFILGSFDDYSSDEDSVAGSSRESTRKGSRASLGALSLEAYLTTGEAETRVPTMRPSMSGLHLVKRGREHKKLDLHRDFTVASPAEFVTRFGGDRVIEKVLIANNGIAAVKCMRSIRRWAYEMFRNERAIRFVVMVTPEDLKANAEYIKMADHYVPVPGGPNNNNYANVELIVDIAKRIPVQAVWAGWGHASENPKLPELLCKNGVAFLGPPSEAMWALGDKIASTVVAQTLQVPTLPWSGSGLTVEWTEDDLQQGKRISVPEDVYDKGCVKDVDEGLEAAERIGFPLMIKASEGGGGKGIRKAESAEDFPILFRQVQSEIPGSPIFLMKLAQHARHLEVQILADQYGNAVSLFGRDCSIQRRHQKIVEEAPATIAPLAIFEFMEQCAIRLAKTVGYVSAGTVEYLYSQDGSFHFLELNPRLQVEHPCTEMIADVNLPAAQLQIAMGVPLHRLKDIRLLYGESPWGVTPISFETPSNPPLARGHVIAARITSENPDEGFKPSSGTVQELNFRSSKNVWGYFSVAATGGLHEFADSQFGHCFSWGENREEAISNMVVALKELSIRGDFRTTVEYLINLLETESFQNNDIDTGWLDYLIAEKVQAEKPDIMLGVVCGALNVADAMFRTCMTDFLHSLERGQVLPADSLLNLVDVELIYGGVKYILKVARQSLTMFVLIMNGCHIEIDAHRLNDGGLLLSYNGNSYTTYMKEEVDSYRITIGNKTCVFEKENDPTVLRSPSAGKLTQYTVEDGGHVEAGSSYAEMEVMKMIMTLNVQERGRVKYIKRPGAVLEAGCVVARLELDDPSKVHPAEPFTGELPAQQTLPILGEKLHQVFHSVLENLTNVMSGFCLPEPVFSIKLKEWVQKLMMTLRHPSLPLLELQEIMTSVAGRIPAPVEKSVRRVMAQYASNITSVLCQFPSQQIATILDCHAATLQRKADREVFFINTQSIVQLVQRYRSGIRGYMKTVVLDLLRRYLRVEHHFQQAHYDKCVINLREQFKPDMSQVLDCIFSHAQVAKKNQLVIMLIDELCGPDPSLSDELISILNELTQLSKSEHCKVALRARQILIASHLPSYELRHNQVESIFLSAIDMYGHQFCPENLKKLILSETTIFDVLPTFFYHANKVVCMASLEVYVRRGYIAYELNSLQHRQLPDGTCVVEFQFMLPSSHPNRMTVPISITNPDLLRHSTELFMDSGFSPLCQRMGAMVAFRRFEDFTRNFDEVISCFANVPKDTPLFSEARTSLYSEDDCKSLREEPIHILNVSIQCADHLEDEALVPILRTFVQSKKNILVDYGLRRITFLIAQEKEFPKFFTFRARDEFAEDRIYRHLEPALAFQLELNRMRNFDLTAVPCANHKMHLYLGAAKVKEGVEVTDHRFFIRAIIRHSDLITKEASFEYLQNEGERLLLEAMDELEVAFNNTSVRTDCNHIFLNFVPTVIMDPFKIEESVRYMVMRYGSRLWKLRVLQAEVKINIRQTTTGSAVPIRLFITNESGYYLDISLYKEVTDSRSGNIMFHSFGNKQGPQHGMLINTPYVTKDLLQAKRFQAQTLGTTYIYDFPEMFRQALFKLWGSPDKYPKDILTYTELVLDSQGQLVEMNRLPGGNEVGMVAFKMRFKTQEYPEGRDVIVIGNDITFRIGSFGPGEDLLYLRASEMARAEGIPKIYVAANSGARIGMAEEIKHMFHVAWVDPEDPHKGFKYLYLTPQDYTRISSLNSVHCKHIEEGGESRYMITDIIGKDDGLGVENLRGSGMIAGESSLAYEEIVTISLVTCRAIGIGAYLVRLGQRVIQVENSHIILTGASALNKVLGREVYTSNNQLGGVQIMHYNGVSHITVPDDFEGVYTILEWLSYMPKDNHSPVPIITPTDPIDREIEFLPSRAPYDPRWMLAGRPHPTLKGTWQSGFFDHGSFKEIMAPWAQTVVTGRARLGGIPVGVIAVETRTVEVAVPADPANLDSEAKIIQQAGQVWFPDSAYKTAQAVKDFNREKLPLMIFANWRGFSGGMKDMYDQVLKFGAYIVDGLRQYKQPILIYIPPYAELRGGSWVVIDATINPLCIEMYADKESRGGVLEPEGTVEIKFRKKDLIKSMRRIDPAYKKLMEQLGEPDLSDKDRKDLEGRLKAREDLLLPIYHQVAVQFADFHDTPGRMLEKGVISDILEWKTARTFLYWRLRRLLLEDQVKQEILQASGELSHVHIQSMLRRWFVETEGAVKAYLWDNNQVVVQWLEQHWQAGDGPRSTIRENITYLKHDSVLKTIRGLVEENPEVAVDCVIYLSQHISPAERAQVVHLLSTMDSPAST

[11] = test system: Phaedon cochleariae; test: Phaedon test (PHAECO spray treatment); conditions: 500 g/ha, after 7 days
[12] = Octanol/water distribution coefficient (logP/D), isocratic HPLC method; type: physicochemical; conditions: pH 7.4
Text: Assay for Determining the Octanol/Water Distribution Coefficient (logP/D):
The distribution coefficient octanol/water P or D is a key parameter for estimating membrane penetration and permeability. It is defined as the ratio of the equilibrium concentrations of a substance in the two-phase system octanol/water.
It is usually stated in form of the decadic logarithm (logP or logD).
logP describes the distribution behaviour of a substance exclusively present in its neutral form. logD describes the distribution behaviour of a substance at a certain pH; depending on the ionization constant pKa of the substance, some of the substance may be present in ionic form, and some in neutral form.
The logP/D of the active compounds was determined using an isocratic HPLC method (HPLC=high performance liquid chromatography) (literature: OECD Guideline for Testing of Chemicals No. 117). The method is based on the correlation of the HPLC retention time of the test substance to that of reference substances with known distribution coefficients.
The test substance was employed as a 10 mM solution in DMSO (DMSO=dimethyl sulphoxide). 10 μl of this solution were made up to 100 μl with a methanol/water mixture in a ratio of 7+3.
The nine reference substances were dissolved individually in methanol. 100 μl each of the stock solutions were added to an HPLC vial and mixed with 300 μl of water.
A formamide solution was used to determine the hold-up time. To this end, 7 mg of formamide were dissolved in 10 ml of methanol. 100 μl of this stock solution were mixed with 500 μl of methanol and 200 μl of water.
All solutions were chromatographed using a flow rate of 1.00 ml/min.
Injection Protocol: formamide, references, test substance 1, test substance 2, . . . , formamide, references.
Evaluation of the retention times was carried out in a diode array detector (DAD) at 200-400 nm Via the molecular mass, the identity of the test substance was checked using the downstream mass spectrometer.
The HPLC run was evaluated using the Waters software Masslynx 4.1.
The logP/D values were calculated using the software “POW Determination” (proprietary development).

[13] = Membrane affinity logMA (MA-Transil); type: physicochemical; conditions: buffer pH 7.4
[14] = molecular target: human serum albumin (HSA) (Homo sapiens, UniProt P02768); test: Protein binding to human serum albumin (HSA-Transil)
Chain of human serum albumin (HSA) (P02768 25-609): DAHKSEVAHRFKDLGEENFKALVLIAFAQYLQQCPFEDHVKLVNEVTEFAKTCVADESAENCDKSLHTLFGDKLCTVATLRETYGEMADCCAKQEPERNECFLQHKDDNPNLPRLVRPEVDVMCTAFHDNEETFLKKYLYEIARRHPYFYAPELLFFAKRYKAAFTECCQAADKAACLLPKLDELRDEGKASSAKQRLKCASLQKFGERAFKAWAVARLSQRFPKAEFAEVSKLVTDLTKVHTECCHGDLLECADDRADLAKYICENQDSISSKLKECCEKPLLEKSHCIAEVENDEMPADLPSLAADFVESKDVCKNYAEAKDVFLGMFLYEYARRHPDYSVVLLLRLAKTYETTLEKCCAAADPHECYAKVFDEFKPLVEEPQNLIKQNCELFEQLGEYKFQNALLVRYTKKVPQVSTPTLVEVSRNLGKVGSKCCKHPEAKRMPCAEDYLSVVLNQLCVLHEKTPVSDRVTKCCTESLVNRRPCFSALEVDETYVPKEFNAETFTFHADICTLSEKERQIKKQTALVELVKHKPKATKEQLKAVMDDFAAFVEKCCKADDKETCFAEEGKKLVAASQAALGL

SMILES: Cc1cc(C)c(C2=C(O)C3(CCC(F)(F)CC3)OC2=O)cc1C [Example I-2-a-1]
- pest or weed control at 500 g/ha [1]: 100%

SMILES: Cc1cc(C)c(C2=C(OC(=O)C(C)C)C3(CCC(F)(F)CC3)OC2=O)cc1C [Example I-2-b-1]
- effect (kill of caterpillars) [2]: 83%
- pest or weed control at 500 g/ha [1]: 100%

SMILES: O=C1NC2(CCC(F)(F)CC2)C(O)=C1c1cc(-c2ccc(Cl)cc2)ccc1Cl [Example 1-4, 3-(4,4′-Dichlorobiphenyl-3-yl)-8,8-difluoro-4-hydroxy-1-azaspiro[4.5]dec-3-en-2-one]
- IC50 [3]: 121 nM and 91 nM
- Selectivity ACC1 vs. ACC2 (mean of the individual measurements ± standard deviation) [4]: 39.7 ± 5.7
- Ratio of IC50s ACC2/ACC1 (respective measurement) [4]: 45.5 and 34.0
- IC50 [5]: 319 nM
- IC50 [6]: 231 nM
- IC50 [7]: 481 nM
- IC50 [8]: 86 nM
- effect (kill of caterpillars) [2]: 100%
- pest or weed control at 500 g/ha [1]: 90%
- pest or weed control at 100 g/ha ([9]; 100 g/ha): 90%
- IC50 [10]: 5480 nM and 3110 nM
- effect (kill of beetle larvae) [11]: 100%

SMILES: Cc1cc(Cl)cc(C)c1C1=C(O)C2(CC=C(F)CC2)NC1=O (centres unmarked) [Example I-1-a-13]
- effect (kill of aphids) [1]: 100%
- effect (kill of spider mites) ([9]; 100 g/ha): 90%
- effect (kill of beetle larvae) [11]: 100%

SMILES: Cc1cc(-c2ccc(Cl)cc2)cc(C)c1C1=C(O)C2(CCC(F)(F)CC2)NC1=O [Example I-1-a-9]
- pest or weed control at 500 g/ha [1]: 100%
- pest or weed control at 100 g/ha ([9]; 100 g/ha): 100%
- effect (kill of beetle larvae) [11]: 100%

SMILES: Cc1cc(C)c(C2=C(O)C3(CCC(F)(F)CC3)OC2=O)c(C)c1 [Example I-2-a-4]
- effect (kill of aphids) [1]: 100%
- effect (kill of beetle larvae) [11]: 100%

SMILES: CCOC(=O)OC1=C(c2c(C)cc(C)cc2CC)C(=O)NC12CCC(F)(F)CC2 [Example I-1-c-1]
- pest or weed control at 500 g/ha [1]: 90%
- pest or weed control at 100 g/ha ([9]; 100 g/ha): 100%

SMILES: Cc1ccc(Br)cc1C1=C(O)C2(CCC(F)(F)CC2)NC1=O [Example I-1-a-14, 3-(5-Bromo-2-methylphenyl)-8,8-difluoro-4-hydroxy-1-azaspiro[4.5]dec-3-en-2-one]
- pest or weed control at 500 g/ha [1]: 100%

SMILES: Cc1cc(Cl)cc(C)c1C1=C(O)C2(CCC(F)(F)CC2)NC1=O [Example I-1-a-7]
- effect (kill of aphids) [1]: 100%
- effect (kill of spider mites) ([9]; 100 g/ha): 100%
- effect (kill of beetle larvae) [11]: 100%

SMILES: Cc1ccc(-c2ccc(Cl)c(F)c2)cc1C1=C(O)[C@]2(CC[C@H](C(F)(F)F)CC2)NC1=O [V.1-a, (5s,8s)-3-(4′-Chloro-3′-fluoro-4-methylbiphenyl-3-yl)-4-hydroxy-8-(trifluoromethyl)-1-azaspiro[4.5]dec-3-en-2-one, reference compound]
- IC50 [3]: 67 nM and 59 nM
- Selectivity ACC1 vs. ACC2 (mean of the individual measurements ± standard deviation) [4]: 9.4 ± 0.8
- Ratio of IC50s ACC2/ACC1 (respective measurement) [4]: 8.6 and 10.3
- IC50 [5]: 245 nM
- IC50 [6]: 398 nM
- IC50 [7]: 573 nM
- IC50 [8]: 30 nM
- chromatographic logP [12]: 2.55
- logMA [13]: 2.55 (2.4-2.7, n = 2)
- IC50 [10]: 580 nM and 610 nM
- Kd [14]: 1430 nM

SMILES: Cc1ccc(-c2ccc(F)cc2)c(C)c1C1=C(O)C2(CC=C(F)CC2)NC1=O (centres unmarked) [Example I-1-a-12]
- effect (kill of caterpillars) [2]: 100%
- effect (kill of aphids) [1]: 100%
- effect (kill of spider mites) ([9]; 500 g/ha): 100%
- effect (kill of beetle larvae) [11]: 100%
